Reference: PubChem BioAssay AID192 (DTP/NCI, 2004)
Where “and” joins values, the source holds several entries; their conditions need not be identical. Equal entries are not always repeated. Inconclusive results and toxic doses are left out. The calls were made as follows: active = survival T/C of 150% or more; inactive = T/C below 125% in these data.

System: BDF1 mice, B16 melanoma ip, median survival T/C
Assay: NCI In Vivo Anticancer Drug Screen. Data for tumor model B16 Melanoma (intraperitoneal) in B6D2F1 (BDF1) mice
Details: endpoint: median survival time, higher = longer survival
Summary of the method: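 Antitumor activity is assessed in mice bearing a transplanted tumor, with survival or tumor size compared against vehicle-dosed controls and expressed as T/C.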

[1] = dose: 1.25 mg/kg/injection, schedule: Q01DX009 (ip), vehicle: Klucel (hydroxypropylcellulose) (HPC)
[2] = dose: 10.0 mg/kg/injection, schedule: Q01DX009 (ip), vehicle: Klucel (hydroxypropylcellulose) (HPC)
[3] = dose: 25.0 mg/kg/injection, schedule: Q01DX009 (ip), vehicle: Klucel (hydroxypropylcellulose) (HPC)
[4] = dose: 6.25 mg/kg/injection, schedule: Q01DX009 (ip), vehicle: Klucel (hydroxypropylcellulose) (HPC)
[5] = dose: 100.0 mg/kg/injection, schedule: Q01DX009 (ip), vehicle: Klucel (hydroxypropylcellulose) (HPC)
[6] = dose: 200.0 mg/kg/injection, schedule: Q01DX009 (ip), vehicle: Klucel (hydroxypropylcellulose) (HPC)
[7] = dose: 400.0 mg/kg/injection, schedule: Q01DX009 (ip), vehicle: Klucel (hydroxypropylcellulose) (HPC)

Measured: T/C

NC(=O)c1nn(C2OC(CO)C(O)C2O)c2ncnc(N)c12 (configuration not stated)
inactive: [1] 96 % of control | dose: 2.5 mg/kg/injection, schedule: Q01DX009 (ip), vehicle: Klucel (hydroxypropylcellulose) (HPC) 104 % of control | dose: 5.0 mg/kg/injection, schedule: Q01DX009 (ip), vehicle: Klucel (hydroxypropylcellulose) (HPC) 107 % of control | [2] 118 % of control | [3] 103 % of control

CCC(C)C1NC(=O)C(NC(=O)c2c3nc4c(C(=O)NC5C(=O)NC(C(C)CC)C(=O)N6CCCC6C(=O)N(C)CC(=O)N(C)C(C(C)C)C(=O)OC5C)ccc(C)c4oc-3c(C)c(=O)c2Cl)C(C)OC(=O)C(C(C)C)N(C)C(=O)CN(C)C(=O)C2CCCN2C1=O (configuration not stated)
inactive: [1] 117 % of control
active: [2] 164 % of control

Cc1c2ccccc2c(C)c2c1ccc1ccccc12
inactive: dose: 2.0 mg/kg/injection, schedule: Q01DX009 (ip), vehicle: saline with Tween-80 100 % of control | dose: 4.0 mg/kg/injection, schedule: Q01DX009 (ip), vehicle: saline with Tween-80 108 % of control | dose: 16.0 mg/kg/injection, schedule: Q01DX009 (ip), vehicle: saline with Tween-80 108 % of control

CCC1(C)c2cc(C)c(C(C)=O)cc2C(C)(C)C1C (configuration not stated)
inactive: dose: 25.0 mg/kg/injection, schedule: Q01DX009 (ip), vehicle: saline with Tween-80 107 % of control | dose: 50.0 mg/kg/injection, schedule: Q01DX009 (ip), vehicle: saline with Tween-80 99 % of control

CC(/C=N/N=C(N)N)=N\NC(N)=S
inactive: dose: 50.0 mg/kg/injection, schedule: Q01DX009 (ip), vehicle: distilled water + Tween-80 105 % of control | dose: 100.0 mg/kg/injection, schedule: Q01DX009 (ip), vehicle: distilled water + Tween-80 94 % of control

CC1(C)N=C(N)N=C(N)N1c1ccc(Cl)c(Cl)c1
inactive: [4] 117 % of control | dose: 6.25 mg/kg/injection, schedule: Q04DX003 (ip), vehicle: Klucel (hydroxypropylcellulose) (HPC) 102 % of control | dose: 12.5 mg/kg/injection, schedule: Q04DX003 (ip), vehicle: Klucel (hydroxypropylcellulose) (HPC) 103 % of control | dose: 25.0 mg/kg/injection, schedule: Q04DX003 (ip), vehicle: Klucel (hydroxypropylcellulose) (HPC) 114 % of control | dose: 50.0 mg/kg/injection, schedule: Q04DX003 (ip), vehicle: Klucel (hydroxypropylcellulose) (HPC) 116 % of control

CCc1cc(Cc2cc(CC)cc(C(C)(C)C)c2O)c(O)c(C(C)(C)C)c1
inactive: [5] 88 % of control | [6] 88 % of control | [7] 89 % of control

CN(C)CCSc1cc(O)c2c(c1O)C(=O)c1ccccc1C2=O
inactive: dose: 50.0 mg/kg/injection, schedule: Q01DX009 (ip), vehicle: water 94 % of control | dose: 100.0 mg/kg/injection, schedule: Q01DX009 (ip), vehicle: water 102 % of control

CCCCNC(=O)Nc1ccccc1Cl
inactive: dose: 100.0 mg/kg/injection, schedule: Q01DX009 (ip), vehicle: saline with Tween-80 100 % of control | dose: 200.0 mg/kg/injection, schedule: Q01DX009 (ip), vehicle: saline with Tween-80 98 % of control | dose: 400.0 mg/kg/injection, schedule: Q01DX009 (ip), vehicle: saline with Tween-80 98 % of control

CN1CCN=C(c2ccccc2)c2cc(Cl)ccc21
inactive: dose: 6.25 mg/kg/injection, schedule: Q01DX009 (ip), vehicle: saline 117 % of control | dose: 12.5 mg/kg/injection, schedule: Q01DX009 (ip), vehicle: saline 117 % of control | dose: 25.0 mg/kg/injection, schedule: Q01DX009 (ip), vehicle: saline 115 % of control | dose: 50.0 mg/kg/injection, schedule: Q01DX009 (ip), vehicle: saline 106 % of control | dose: 100.0 mg/kg/injection, schedule: Q01DX009 (ip), vehicle: saline 100 % of control

CS(=O)(=O)OCCCNCCCOS(C)(=O)=O
active: dose: 10.0 mg/kg/injection, schedule: Q01DX009 (ip), vehicle: saline 159 % of control | dose: 20.0 mg/kg/injection, schedule: Q01DX009 (ip), vehicle: saline 161 % of control and 175 % of control and 202 % of control | dose: 30.0 mg/kg/injection, schedule: Q01DX009 (ip), vehicle: saline 189 % of control | dose: 40.0 mg/kg/injection, schedule: Q01DX009 (ip), vehicle: saline 201 % of control and 215 % of control and 271 % of control | dose: 60.0 mg/kg/injection, schedule: Q01DX009 (ip), vehicle: saline 228 % of control
inactive: dose: 1.25 mg/kg/injection, schedule: Q01DX009 (ip), vehicle: saline 103 % of control | dose: 2.5 mg/kg/injection, schedule: Q01DX009 (ip), vehicle: saline 110 % of control | dose: 5.0 mg/kg/injection, schedule: Q01DX009 (ip), vehicle: saline 123 % of control

COc1ccccc1NC(=O)Nc1c(C)cccc1C
inactive: dose: 100.0 mg/kg/injection, schedule: Q01DX009 (ip), vehicle: gum acacia 101 % of control | dose: 200.0 mg/kg/injection, schedule: Q01DX009 (ip), vehicle: gum acacia 102 % of control | dose: 400.0 mg/kg/injection, schedule: Q01DX009 (ip), vehicle: gum acacia 90 % of control

CCOC(=O)c1ccc(N)cc1
inactive: dose: 37.5 mg/kg/injection, schedule: Q01DX009 (ip), vehicle: saline with Tween-80 121 % of control | dose: 37.5 mg/kg/injection, schedule: Q04DX003 (ip), vehicle: saline with Tween-80 102 % of control | dose: 75.0 mg/kg/injection, schedule: Q01DX009 (ip), vehicle: saline with Tween-80 112 % of control | dose: 75.0 mg/kg/injection, schedule: Q04DX003 (ip), vehicle: saline with Tween-80 91 % of control | dose: 150.0 mg/kg/injection, schedule: Q01DX009 (ip), vehicle: saline with Tween-80 107 % of control | dose: 150.0 mg/kg/injection, schedule: Q04DX003 (ip), vehicle: saline with Tween-80 93 % of control

CC1=Nc2ccc([N+](=O)[O-])cc2N=C(C)C1
inactive: dose: 37.5 mg/kg/injection, schedule: Q01DX009 (ip), vehicle: saline 97 % of control | dose: 75.0 mg/kg/injection, schedule: Q01DX009 (ip), vehicle: saline 101 % of control | dose: 150.0 mg/kg/injection, schedule: Q01DX009 (ip), vehicle: saline 89 % of control

CCCCCCCC(O)CCCC (configuration not stated)
inactive: [5] 92 % of control | [6] 98 % of control | [7] 86 % of control

COCc1ccc(COC)cc1
inactive: dose: 100.0 mg/kg/injection, schedule: Q04DX003 (ip), vehicle: saline 102 % of control | dose: 200.0 mg/kg/injection, schedule: Q04DX003 (ip), vehicle: saline 102 % of control | dose: 400.0 mg/kg/injection, schedule: Q04DX003 (ip), vehicle: saline 100 % of control

O=C1N[C@@H]([C@H]2CC[C@H](Cl)CN2)C(=O)N[C@H]1[C@H]1CC[C@H](Cl)CN1
inactive: dose: 0.05 mg/kg/injection, schedule: Q01DX009 (ip), vehicle: saline 107 % of control | dose: 0.1 mg/kg/injection, schedule: Q01DX009 (ip), vehicle: saline 116 % of control | dose: 0.5 mg/kg/injection, schedule: Q04DX003 (ip), vehicle: saline 103 % of control | dose: 1.0 mg/kg/injection, schedule: Q01DX001 (ip), vehicle: saline 115 % of control | dose: 1.0 mg/kg/injection, schedule: Q04DX003 (ip), vehicle: saline 119 % of control | dose: 1.25 mg/kg/injection, schedule: Q01DX001 (ip), vehicle: saline 119 % of control | dose: 2.0 mg/kg/injection, schedule: Q01DX001 (ip), vehicle: saline 120 % of control | dose: 2.0 mg/kg/injection, schedule: Q04DX003 (ip), vehicle: saline 124 % of control | dose: 2.5 mg/kg/injection, schedule: Q01DX001 (ip), vehicle: saline 114 % of control | dose: 10.0 mg/kg/injection, schedule: Q01DX009 (ip), vehicle: alkali diluted with saline 30 % of control | dose: 20.0 mg/kg/injection, schedule: Q01DX009 (ip), vehicle: alkali diluted with saline 30 % of control | dose: 40.0 mg/kg/injection, schedule: Q01DX009 (ip), vehicle: alkali diluted with saline 27 % of control | dose: 80.0 mg/kg/injection, schedule: Q01DX009 (ip), vehicle: alkali diluted with saline 16 % of control
active: dose: 16.0 mg/kg/injection, schedule: Q01DX001 (ip), vehicle: saline 154 % of control

COc1ccc(C(N)=O)cc1N=NN(C)C
inactive: dose: 3.12 mg/kg/injection, schedule: Q01DX009 (ip), vehicle: Klucel (hydroxypropylcellulose) (HPC) 111 % of control and 113 % of control | [4] 109 % of control and 110 % of control | dose: 12.5 mg/kg/injection, schedule: Q01DX009 (ip), vehicle: Klucel (hydroxypropylcellulose) (HPC) 110 % of control and 111 % of control | [3] 115 % of control and 123 % of control | dose: 50.0 mg/kg/injection, schedule: Q01DX009 (ip), vehicle: Klucel (hydroxypropylcellulose) (HPC) 117 % of control
